From the NIST ThermoML archive (doi:10.1021/je600568w)
Numbers after ± are expanded uncertainties.

How the values were obtained:
[1] = 101 kPa, Liquid; for viscosity: Capillary tube (Ostwald / Ubbelohde) method
[2] = xn = mol fraction of the nth substance listed; settings: 101 kPa, Liquid; for viscosity: Capillary tube (Ostwald / Ubbelohde) method

CCOC(=O)C(C)O (racemic) [DL-ethyl lactate]
[1]
Settings	mass density [kg/m3]	viscosity [mPa·s]
298.15 K	1029.1 ± 2.3	2.398 ± 0.051
308.15 K	1018.7 ± 2.3	1.863 ± 0.04
318.15 K	1007.5 ± 2.3	1.494 ± 0.032

C=C(C)C(=O)OCCO [2-hydroxyethyl 2-methyl-2-propenoate]
[1]
Settings	mass density [kg/m3]	viscosity [mPa·s]
298.15 K	1067.1 ± 2.6	5.784 ± 0.13
308.15 K	1057.7 ± 2.6	4.194 ± 0.096
318.15 K	1048.6 ± 2.6	3.181 ± 0.073

C=C(C)C(=O)OCCO [2-hydroxyethyl 2-methyl-2-propenoate] + CCOC(=O)C(C)O
[2]
Settings	mass density, 298.15 K [kg/m3]	mass density, 308.15 K [kg/m3]	mass density, 318.15 K [kg/m3]	viscosity, 298.15 K [mPa·s]	viscosity, 308.15 K [mPa·s]	viscosity, 318.15 K [mPa·s]
x2 = 0	1067.1 ± 2.6	1057.7 ± 2.6	1048.6 ± 2.6	5.784 ± 0.13	4.194 ± 0.096	3.181 ± 0.073
x2 = 0.1	1063.9 ± 2.5	1054.7 ± 2.5	1045.6 ± 2.5	5.23 ± 0.12	3.833 ± 0.087	2.938 ± 0.067
x2 = 0.2	1060.6 ± 2.5	1051.4 ± 2.5	1042.2 ± 2.5	4.75 ± 0.11	3.513 ± 0.079	2.71 ± 0.061
x2 = 0.3	1057.1 ± 2.5	1047.9 ± 2.5	1038.5 ± 2.5	4.36 ± 0.097	3.215 ± 0.072	2.493 ± 0.056
x2 = 0.4	1053.5 ± 2.4	1044.3 ± 2.4	1034.6 ± 2.4	3.989 ± 0.088	2.975 ± 0.066	2.311 ± 0.051
x2 = 0.5	1049.8 ± 2.4	1040.4 ± 2.4	1030.6 ± 2.4	3.663 ± 0.08	2.742 ± 0.06	2.141 ± 0.047
x2 = 0.6	1045.9 ± 2.4	1036.4 ± 2.4	1026.4 ± 2.4	3.343 ± 0.073	2.526 ± 0.055	1.985 ± 0.043
x2 = 0.7	1041.8 ± 2.3	1032.2 ± 2.3	1022 ± 2.3	3.041 ± 0.066	2.323 ± 0.05	1.834 ± 0.04
x2 = 0.8	1037.7 ± 2.3	1027.9 ± 2.3	1017.5 ± 2.3	2.767 ± 0.06	2.127 ± 0.046	1.689 ± 0.036
x2 = 0.9	1033.4 ± 2.3	1023.4 ± 2.3	1012.8 ± 2.3	2.524 ± 0.054	1.949 ± 0.042	1.556 ± 0.033

C=C(C)C(=O)O [2-methyl-2-propenoic acid]
[1]
Settings	mass density [kg/m3]	viscosity [mPa·s]
298.15 K	1009.5 ± 2.2	1.267 ± 0.027
308.15 K	999.4 ± 2.2	1.078 ± 0.023
318.15 K	989.2 ± 2.2	0.945 ± 0.02

C=C(C)C(=O)O [2-methyl-2-propenoic acid] + CCOC(=O)C(C)O
[2]
Settings	mass density, 298.15 K [kg/m3]	mass density, 308.15 K [kg/m3]	mass density, 318.15 K [kg/m3]	viscosity, 298.15 K [mPa·s]	viscosity, 308.15 K [mPa·s]	viscosity, 318.15 K [mPa·s]
x2 = 0	1009.5 ± 2.2	999.4 ± 2.2	989.2 ± 2.2	1.267 ± 0.027	1.078 ± 0.023	0.945 ± 0.02
x2 = 0.1	1012.1 ± 2.2	1002 ± 2.2	991.7 ± 2.2	1.422 ± 0.03	1.19 ± 0.025	1.02 ± 0.022
x2 = 0.2	1014.6 ± 2.2	1004.6 ± 2.2	994.5 ± 2.2	1.66 ± 0.035	1.368 ± 0.029	1.154 ± 0.025
x2 = 0.3	1017 ± 2.2	1007.4 ± 2.2	997.3 ± 2.2	1.933 ± 0.041	1.567 ± 0.033	1.306 ± 0.028
x2 = 0.3999	1019.8 ± 2.2	1010.2 ± 2.2	999.9 ± 2.2	2.181 ± 0.046	1.742 ± 0.037	1.43 ± 0.03
x2 = 0.5	1022.5 ± 2.3	1012.7 ± 2.3	1002.2 ± 2.3	2.378 ± 0.051	1.87 ± 0.04	1.52 ± 0.032
x2 = 0.6	1024.7 ± 2.3	1014.8 ± 2.3	1004.2 ± 2.3	2.465 ± 0.052	1.929 ± 0.041	1.551 ± 0.033
x2 = 0.6999	1026.5 ± 2.3	1016.5 ± 2.3	1005.8 ± 2.3	2.532 ± 0.054	1.967 ± 0.042	1.579 ± 0.034
x2 = 0.8	1027.9 ± 2.3	1017.8 ± 2.3	1007.2 ± 2.3	2.539 ± 0.054	1.962 ± 0.042	1.567 ± 0.033
x2 = 0.9001	1028.7 ± 2.3	1018.6 ± 2.3	1008.2 ± 2.3	2.471 ± 0.053	1.907 ± 0.041	1.526 ± 0.033

CCOC(=O)C(C)O (stereo not drawn) [DL-ethyl lactate] + C=C(C)C(=O)O
[2], x1 = 1
Settings	mass density [kg/m3]	viscosity [mPa·s]
298.15 K	1029.1 ± 2.3	2.398 ± 0.051
308.15 K	1018.7 ± 2.3	1.863 ± 0.04
318.15 K	1007.5 ± 2.3	1.494 ± 0.032

CCOC(=O)C(C)O (stereo not drawn) [DL-ethyl lactate] + C=C(C)C(=O)OCCO
[2], x1 = 1
Settings	mass density [kg/m3]	viscosity [mPa·s]
298.15 K	1029.1 ± 2.3	2.398 ± 0.051
308.15 K	1018.7 ± 2.3	1.863 ± 0.04
318.15 K	1007.5 ± 2.3	1.494 ± 0.032

CCOC(=O)C(C)O (stereo not drawn) [DL-ethyl lactate] + C=C(C)C(=O)OCc1ccccc1
[2], x1 = 1
Settings	mass density [kg/m3]	viscosity [mPa·s]
298.15 K	1029.1 ± 2.3	2.398 ± 0.051
308.15 K	1018.7 ± 2.3	1.863 ± 0.04
318.15 K	1007.5 ± 2.3	1.494 ± 0.032

C=C(C)C(=O)OCc1ccccc1 [benzyl methacrylate]
[1]
Settings	mass density [kg/m3]	viscosity [mPa·s]
298.15 K	1034.7 ± 2.5	2.302 ± 0.053
308.15 K	1025.8 ± 2.5	1.885 ± 0.043
318.15 K	1017 ± 2.5	1.58 ± 0.036

C=C(C)C(=O)OCc1ccccc1 [benzyl methacrylate] + CCOC(=O)C(C)O
[2]
Settings	mass density, 298.15 K [kg/m3]	mass density, 308.15 K [kg/m3]	mass density, 318.15 K [kg/m3]	viscosity, 298.15 K [mPa·s]	viscosity, 308.15 K [mPa·s]	viscosity, 318.15 K [mPa·s]
x2 = 0	1034.7 ± 2.5	1025.8 ± 2.5	1017 ± 2.5	2.302 ± 0.053	1.885 ± 0.043	1.58 ± 0.036
x2 = 0.1	1033.7 ± 2.5	1024.3 ± 2.5	1015.1 ± 2.5	2.219 ± 0.05	1.832 ± 0.042	1.53 ± 0.035
x2 = 0.1999	1032.7 ± 2.4	1023.3 ± 2.4	1013.9 ± 2.4	2.166 ± 0.049	1.8 ± 0.041	1.493 ± 0.034
x2 = 0.3	1032.1 ± 2.4	1022.6 ± 2.4	1012.9 ± 2.4	2.153 ± 0.048	1.77 ± 0.04	1.458 ± 0.033
x2 = 0.4	1031.6 ± 2.4	1021.9 ± 2.4	1012.1 ± 2.4	2.149 ± 0.048	1.753 ± 0.039	1.437 ± 0.032
x2 = 0.5	1031.1 ± 2.4	1021.2 ± 2.4	1011.2 ± 2.3	2.161 ± 0.048	1.749 ± 0.039	1.426 ± 0.031
x2 = 0.6	1030.7 ± 2.3	1020.6 ± 2.3	1010.4 ± 2.3	2.179 ± 0.048	1.753 ± 0.038	1.426 ± 0.031
x2 = 0.7	1030.2 ± 2.3	1020 ± 2.3	1009.5 ± 2.3	2.209 ± 0.048	1.761 ± 0.038	1.431 ± 0.031
x2 = 0.7999	1029.8 ± 2.3	1019.4 ± 2.3	1008.7 ± 2.3	2.25 ± 0.048	1.782 ± 0.038	1.447 ± 0.031
x2 = 0.9	1029.4 ± 2.3	1018.9 ± 2.3	1008 ± 2.3	2.303 ± 0.049	1.807 ± 0.039	1.464 ± 0.031
